Source: PubChem BioAssay (NCI)
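How tested: cells in 96-well plates exposed to compound for 48 hours at five concentrations. GI50: concentration for 50% inhibition of growth. TGI is the concentration that stops growth completely.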

What was measured:
Experiment in all cases: growth of human tumour cells (NCI), 48 h
[1] = system: RPMI-8226 leukemia
[2] = system: SK-MEL-2 melanoma
[3] = system: SK-MEL-5 melanoma
[4] = system: SK-OV-3 ovarian
[5] = system: NCI-H460 lung
[6] = system: PC-3 prostate
[7] = system: SF-268 CNS
[8] = system: MDA-MB-231 breast
[9] = system: EKVX NSCLC
[10] = system: SW-620 colon
[11] = system: OVCAR-4 ovarian
[12] = system: OVCAR-8 ovarian
[13] = system: LOX IMVI melanoma
[14] = system: HCT-116 colon
[15] = system: HOP-92 NSCLC
[16] = system: NCI-H23 lung
[17] = system: BT-549 breast
[18] = system: A498 renal
[19] = system: KM12 colon
[20] = system: M14 melanoma
[21] = system: TK-10 renal
[22] = system: IGROV1 ovarian
[23] = system: ACHN renal
[24] = system: SNB-75 CNS
[25] = system: CAKI-1 renal
[26] = system: MCF7 breast
[27] = system: T-47D breast
[28] = system: UO-31 renal
[29] = system: NCI-H522 lung
[30] = system: SR leukemia
[31] = system: NCI/ADR-RES ovarian
[32] = system: SF-295 CNS
[33] = system: HL-60(TB) leukemia
[34] = system: HCT-15 colon
[35] = system: COLO 205 colon
[36] = system: SNB-19 CNS
[37] = system: K-562 leukemia
[38] = system: 786-0 renal
[39] = system: SK-MEL-28 melanoma
[40] = system: OVCAR-5 ovarian
[41] = system: OVCAR-3 ovarian
[42] = system: A549 NSCLC
[43] = system: DU-145 prostate
[44] = system: MDA-MB-435
[45] = system: UACC-62 melanoma
[46] = system: HCC-2998 colon
[47] = system: HS 578T breast
[48] = system: HOP-62 NSCLC
[49] = system: SN12C renal
[50] = system: SF-539 CNS
[51] = system: U251 CNS
[52] = system: CCRF-CEM leukemia
[53] = system: MOLT-4 leukemia
[54] = system: UACC-257 melanoma
[55] = system: NCI-H226 lung
[56] = system: HT29 colon
[57] = system: MALME-3M melanoma
[58] = system: RXF 393 renal

`O=C(/C=C/c1cccc(Cl)c1)c1ccc(Cl)cc1Cl` gave a GI50 [1] of 1.68 µM, a TGI [1] greater than 50 µM and a GI50 [2] of 11.8 µM. The TGI [2] was 33 µM, the GI50 [3] was 8.78 µM and the TGI [3] was 17.5 µM. The GI50 [4] was 9.91 µM, the TGI [4] was 21.7 µM and the GI50 [5] was 13.2 µM. It also gave a TGI [5] greater than 50 µM, a GI50 [6] of 15.2 µM and a TGI [6] greater than 50 µM. It also gave a GI50 [7] of 10.2 µM, a TGI [7] of 25.1 µM and a GI50 [8] of 13 µM. For the same compound, the TGI [8] was 34.7 µM, the GI50 [9] was 12.8 µM and the TGI [9] was 34.4 µM. For the same compound, the GI50 [10] was 2.36 µM, the TGI [10] was 38.7 µM and the GI50 [11] was 13.4 µM. For the same compound, the TGI [11] was 41.5 µM, the GI50 [12] was 12 µM and the TGI [12] was 36.9 µM. The GI50 [13] was 1.88 µM, the TGI [13] was 4.69 µM and the GI50 [14] was 20.4 µM. For the same compound, the TGI [14] was greater than 50 µM, the GI50 [15] was 6.17 µM and the TGI [15] was 16.2 µM. The GI50 [16] was 10.2 µM, the TGI [16] was 19.3 µM and the GI50 [17] was 8.94 µM. The TGI [17] was 20.7 µM, the GI50 [18] was 9.71 µM and the TGI [18] was 27.7 µM. The GI50 [19] was 9.76 µM, the TGI [19] was 21.6 µM and the GI50 [20] was 14 µM. The TGI [20] was 31 µM, the GI50 [21] was 8.8 µM and the TGI [21] was 18.8 µM. For the same compound, the GI50 [22] was 7.56 µM, the TGI [22] was greater than 50 µM and the GI50 [23] was 15.3 µM. The TGI [23] was 38.4 µM, the GI50 [24] was 9.5 µM and the TGI [24] was 30.1 µM. The GI50 [25] was 8.94 µM, the TGI [25] was 18.2 µM and the GI50 [26] was 3.49 µM. For the same compound, the TGI [26] was greater than 50 µM, the GI50 [27] was 9.11 µM and the TGI [27] was 25.9 µM. It also gave a GI50 [28] of 11.4 µM, a TGI [28] of 25.8 µM and a GI50 [29] of 1.85 µM. The TGI [29] was 15.6 µM, the GI50 [30] was 0.005 µM and the TGI [30] was 4.31 µM. The GI50 [31] was 11.3 µM, the TGI [31] was 21.6 µM and the GI50 [32] was 10.1 µM. The TGI [32] was 22.4 µM, the GI50 [33] was 25.3 µM and the TGI [33] was greater than 50 µM. For the same compound, the GI50 [34] was 12.2 µM, the TGI [34] was greater than 50 µM and the GI50 [35] was 12.2 µM. For the same compound, the TGI [35] was 40.6 µM, the GI50 [36] was 7.42 µM and the TGI [36] was 17.1 µM. The GI50 [37] was 2.86 µM, the TGI [37] was greater than 50 µM and the GI50 [38] was 12.9 µM. It also gave a TGI [38] of 27.6 µM, a GI50 [39] of 9.69 µM and a TGI [39] of 26.6 µM. The GI50 [40] was 12.2 µM, the TGI [40] was 27.2 µM and the GI50 [41] was 8.54 µM. It also gave a TGI [41] of 17.3 µM, a GI50 [42] of 10.4 µM and a TGI [42] of 29.7 µM. It also gave a GI50 [43] of 9.59 µM, a TGI [43] of 23 µM and a GI50 [44] of 8.31 µM. For the same compound, the TGI [44] was 16.8 µM, the GI50 [45] was 11.1 µM and the TGI [45] was 29 µM. It also gave a GI50 [46] of 1.14 µM, a TGI [46] of 2.52 µM and a GI50 [47] of 13.2 µM. The TGI [47] was 40.1 µM, the GI50 [48] was 17.4 µM and the TGI [48] was greater than 50 µM. It also gave a GI50 [49] of 14.7 µM, a TGI [49] of 32 µM and a GI50 [50] of 12.6 µM. The TGI [50] was 28 µM, the GI50 [51] was 8.37 µM and the TGI [51] was 21.1 µM.

Work on `CC(=O)N1CC(F)(F)c2c(Sc3ncc(N4CCC5(CC4)COC[C@H]5N)nc3N)cccc21` yielded a GI50 [1] of 12.4 µM, a TGI [1] of 42.7 µM and a GI50 [2] of 24.7 µM. The TGI [2] was greater than 100 µM, the GI50 [3] was 16 µM and the TGI [3] was 30.1 µM. The GI50 [4] was 3.75 µM, the TGI [4] was greater than 100 µM and the GI50 [52] was 18.7 µM. It also gave a TGI [52] of 68.5 µM, a GI50 [5] of 31.8 µM and a TGI [5] greater than 100 µM. The GI50 [6] was 29.8 µM, the TGI [6] was greater than 100 µM and the GI50 [7] was 17.4 µM. It also gave a TGI [7] greater than 100 µM, a GI50 [8] of 17.3 µM and a TGI [8] of 41.5 µM. For the same compound, the GI50 [9] was 8.27 µM, the TGI [9] was greater than 100 µM and the GI50 [53] was 21.1 µM. It also gave a TGI [53] of 67.7 µM, a GI50 [10] of 16.8 µM and a TGI [10] of 54.4 µM. For the same compound, the GI50 [11] was 10.5 µM, the TGI [11] was 96.6 µM and the GI50 [12] was 35 µM. It also gave a TGI [12] greater than 100 µM, a GI50 [13] of 16.6 µM and a TGI [13] of 32.1 µM. It also gave a GI50 [14] of 17.7 µM, a TGI [14] of 46.6 µM and a GI50 [15] of 0.259 µM. For the same compound, the TGI [15] was 3.64 µM, the GI50 [16] was 3.35 µM and the TGI [16] was greater than 100 µM. The GI50 [54] was 22.8 µM, the TGI [54] was 62 µM and the GI50 [17] was 10.8 µM. The TGI [17] was 53.7 µM, the GI50 [18] was 0.402 µM and the TGI [18] was 4.18 µM. The GI50 [19] was 22.1 µM, the TGI [19] was greater than 100 µM and the GI50 [20] was 17.9 µM. It also gave a TGI [20] of 37.8 µM, a GI50 [55] of 20.9 µM and a TGI [55] greater than 100 µM. It also gave a GI50 [21] of 0.991 µM, a TGI [21] of 35.8 µM and a GI50 [22] of 2.47 µM. The TGI [22] was 86.9 µM, the GI50 [23] was 9.03 µM and the TGI [23] was 51.4 µM. For the same compound, the GI50 [24] was 3.19 µM, the TGI [24] was 38.2 µM and the GI50 [25] was 3.68 µM. For the same compound, the TGI [25] was 30 µM, the GI50 [26] was 15.8 µM and the TGI [26] was 55.6 µM. The GI50 [27] was 17.6 µM, the TGI [27] was greater than 100 µM and the GI50 [28] was 2.96 µM. For the same compound, the TGI [28] was 25.8 µM, the GI50 [30] was 8.16 µM and the TGI [30] was 35.8 µM. The GI50 [31] was 27.6 µM, the TGI [31] was greater than 100 µM and the GI50 [32] was 15.2 µM. For the same compound, the TGI [32] was 50.7 µM, the GI50 [33] was 18.3 µM and the TGI [33] was 36.4 µM. It also gave a GI50 [34] of 24 µM, a TGI [34] of 96.8 µM and a GI50 [35] of 17.8 µM. For the same compound, the TGI [35] was 36.7 µM, the GI50 [56] was 14.2 µM and the TGI [56] was 52.9 µM. The GI50 [36] was 14.4 µM, the TGI [36] was greater than 100 µM and the GI50 [37] was 2.11 µM. The TGI [37] was 20.7 µM, the GI50 [38] was 10.8 µM and the TGI [38] was 27.1 µM. It also gave a GI50 [39] of 16.1 µM, a TGI [39] of 30.7 µM and a GI50 [40] of 15.4 µM. The TGI [40] was greater than 100 µM, the GI50 [41] was 16.9 µM and the TGI [41] was 61.5 µM. For the same compound, the GI50 [57] was 15.5 µM, the TGI [57] was 31.5 µM and the GI50 [42] was 23.1 µM. For the same compound, the TGI [42] was greater than 100 µM, the GI50 [43] was 25.7 µM and the TGI [43] was greater than 100 µM. The GI50 [44] was 31 µM, the TGI [44] was greater than 100 µM and the GI50 [45] was 18 µM. For the same compound, the TGI [45] was 36.1 µM, the GI50 [58] was 1.81 µM and the TGI [58] was 9.28 µM. The GI50 [46] was 28.3 µM, the TGI [46] was 94.1 µM and the GI50 [47] was 14.6 µM. The TGI [47] was 59.1 µM, the GI50 [48] was 3.69 µM and the TGI [48] was 75.1 µM. It also gave a GI50 [49] of 25.8 µM, a TGI [49] greater than 100 µM and a GI50 [50] of 11.2 µM. For the same compound, the TGI [50] was 23.3 µM, the GI50 [51] was 11.1 µM and the TGI [51] was 52.5 µM.
